US20120282377A1, “Methods and Formulations for Inhibiting Degradation of Photosensitive Sweeteners and Sweetener Enhancers” (priority 2011, published 2012)

Legend:
Assay type in all cases: physicochemical
[1] = Stability of monatin in lemon lime matrix under visible light (Example 2)
Experimental: High-potency sweetener monatin was evaluated for stability to sunlight exposure when formulated into a beverage packaged in PET packaging (bottle) with and without a UV barrier or in a dark-colored PET packaging. This study was designed to evaluate the stability of RR stereoisomer of monatin under normal visible light and under ultraviolet light in the Atlas sun-test chamber using normal PET bottles, PET packaging with a UV barrier and dark PET packaging. For this purpose monatin solution was made in a lemon lime carbonated beverage matrix without any flavor added.
The RR isomer of monatin was used for the present study after satisfactory HPLC and LC-MS data analyses confirmed that this sample greater than 95% pure. A lemon lime beverage matrix without flavor was used as the matrix base. The concentration of monatin in the matrix was 30 ppm.
Due to lack of any RR-monatin standard, its stereoisomer, SS-monatin was used for HPLC calibration curve preparation as it appears at the same retention time as RR-monatin.
Quantitative analysis of monatin via UV detection in LC-MS was done for all the samples. The methodology employed a 12% acetonitrile (solvent A) in 50 mM ammonium formate (pH 4.0, solvent B) for 5 min followed by a linear gradient to 34% acetonitrile over 5 min; Detection: UV @278 nm].
1) regular PET bottles, 300 mL or 8 Oz (bottle type A). 2) PET bottles with a UV barrier, 600 mL or 16 Oz, fresh un-used bottle* (bottle type B). * It was shown that the UV barrier capacity decreased after one use in the commercially bought 20 Oz PET bottles with a UV barrier (See the UV scan data in FIG. 1). 3) dark-colored PET bottles (bottle type C). UV light source: Atlas Sun-test chamber. Under program 1 of sun-test chamber, 6 hr of exposure is equal to one day of sun-light exposure in Arizona or 400 Langley at 40° C. Control Experiment: UV irradiation by using only a lemon lime matrix (no monatin added) in regular PET bottles and running the sun-test chamber for four days equivalent exposure was carried out. The purpose of this experiment was to make sure no artifact arises from lemon lime matrix in the monatin absorption region. No new signals were identified. 13 bottles were used in the monatin-lemon-lime matrix experiments: 1 regular PET at zero time and 3 regular PET bottles; 2 PET bottles with a UV barrier bottles and 7 dark-colored PET bottles. Zero time sample protocol: 330 mL PET bottle was filled up to ⅓^rd full, flushed with nitrogen, covered with foil and then kept at 4° C. Sample aliquot protocol: 5 mL was taken out in a 20 mL opaque glass scintillation vial. Both vial and experimental bottle were flushed with nitrogen. The vial was covered with foil and kept at 4° C.
LC-MS analysis was carried out on all the samples in the same day as their maturation. A new monatin calibration curve was made every day with the SS-monatin sample.
For these experiments, visible light is the normal laboratory light which was left on all the time during the experiment.

[2] = Monatin stability in PET bottle types with or without additives, 1600 Langley UV exposure (Example 5); conditions: 1600 Langley (24 hour at 40° C.); for Monatin remaining after UV exposure (ppm): control 43.3 ppm
Experimental: The stability of monatin in regular PET bottles, PET bottles with UV barrier (colorless or green) and with or without Chinese Green Tea polyphenol or α-cyclodextrin was evaluated. Each sample was irradiated with an irradiation energy of 1600 Langley exposure (24 hour exposure at 40° C. in Atlas SunTest XLS+chamber, which was equivalent to four day of sun exposure in Arizona). A control formulation was used that contained monatin at 43.3 ppm. The results were analyzed by LC-MS.

[3] = Visual analysis of UV and light exposed monatin samples by 6 panelists; set-up: key: (+) = colorless; (−) = color change (color noted); conditions: 30 PPM in lemon lime matrix pH 3.35, panelists 1-6
Experimental: A survey of odor and visual analysis of the UV and light exposed samples of the monatin samples was conducted by 6 panelists. Samples for analysis were solution of monatin in a lemon lime matrix without flavor at pH 3.35 (30 PPM monatin) exposed to visible for three days or UV light for 24 hours (equivalent of four days sun exposure).

[4] = Green PET with UV barrier (0.12%), additives none
[5] = PET with UV barrier, Chinese Green Tea Polyphenol TP>40 (149 ppm)
[6] = PET with UV barrier, additives none
[7] = PET with UV barrier, α-cyclodextrin (729 ppm)

NC(CC(O)(Cc1c[nH]c2ccccc12)C(=O)O)C(=O)O (stereo not drawn) [Monatin, 2-amino-4-carboxy-4-hydroxy-5-(3-indolyl)-pentanoic acid]
degrades upon exposure to visible light ([1]; lemon-lime matrix, any of the three types of bottles, visible light for up to 74 hours): less than 10% | Conc. in mg/L RR-Monatin in Lemon Lime matrix UV barrier PET Bottle (600 mL) ([1]; visible light 0 hours): 31.1 mg/L | Conc. in mg/L RR-Monatin in Lemon Lime matrix in Normal PET Bottle (330 mL) ([1]; visible light 0 hours): 31.1 mg/L | Conc. in mg/L RR-Monatin in Lemon Lime matrix in dark-colored PET Bottle (75 mL) ([1]; visible light 0 hours): 31.1 mg/L | Conc. in mg/L RR-Monatin in Lemon Lime matrix UV barrier PET Bottle (600 mL) ([1]; visible light 5 hours): 30.9 mg/L | Conc. in mg/L RR-Monatin in Lemon Lime matrix in Normal PET Bottle (330 mL) ([1]; visible light 5 hours): 31.0 mg/L | Conc. in mg/L RR-Monatin in Lemon Lime matrix in dark-colored PET Bottle (75 mL) ([1]; visible light 5 hours): 30.9 mg/L | Conc. in mg/L RR-Monatin in Lemon Lime matrix UV barrier PET Bottle (600 mL) ([1]; visible light 8 hours): 30.4 mg/L | Conc. in mg/L RR-Monatin in Lemon Lime matrix in Normal PET Bottle (330 mL) ([1]; visible light 8 hours): 30.4 mg/L | Conc. in mg/L RR-Monatin in Lemon Lime matrix in dark-colored PET Bottle (75 mL) ([1]; visible light 8 hours): 30.4 mg/L | Conc. in mg/L RR-Monatin in Lemon Lime matrix UV barrier PET Bottle (600 mL) ([1]; visible light 26 hours): 29.8 mg/L | Conc. in mg/L RR-Monatin in Lemon Lime matrix in Normal PET Bottle (330 mL) ([1]; visible light 26 hours): 29.7 mg/L | Conc. in mg/L RR-Monatin in Lemon Lime matrix in dark-colored PET Bottle (75 mL) ([1]; visible light 26 hours): 29.9 mg/L | Conc. in mg/L RR-Monatin in Lemon Lime matrix UV barrier PET Bottle (600 mL) ([1]; visible light 31 hours): 29.5 mg/L | Conc. in mg/L RR-Monatin in Lemon Lime matrix in Normal PET Bottle (330 mL) ([1]; visible light 31 hours): 29.7 mg/L | Conc. in mg/L RR-Monatin in Lemon Lime matrix in dark-colored PET Bottle (75 mL) ([1]; visible light 31 hours): 29.7 mg/L | Conc. in mg/L RR-Monatin in Lemon Lime matrix UV barrier PET Bottle (600 mL) ([1]; visible light 49 hours): 28.9 mg/L | Conc. in mg/L RR-Monatin in Lemon Lime matrix in Normal PET Bottle (330 mL) ([1]; visible light 49 hours): 29.2 mg/L | Conc. in mg/L RR-Monatin in Lemon Lime matrix in dark-colored PET Bottle (75 mL) ([1]; visible light 49 hours): 29.3 mg/L | Conc. in mg/L RR-Monatin in Lemon Lime matrix UV barrier PET Bottle (600 mL) ([1]; visible light 56 hours): 29.2 mg/L | Conc. in mg/L RR-Monatin in Lemon Lime matrix in Normal PET Bottle (330 mL) ([1]; visible light 56 hours): 29.1 mg/L | Conc. in mg/L RR-Monatin in Lemon Lime matrix in dark-colored PET Bottle (75 mL) ([1]; visible light 56 hours): 29.2 mg/L | Conc. in mg/L RR-Monatin in Lemon Lime matrix UV barrier PET Bottle (600 mL) ([1]; visible light 74 hours): 28.7 mg/L | Conc. in mg/L RR-Monatin in Lemon Lime matrix in Normal PET Bottle (330 mL) ([1]; visible light 74 hours): 28.8 mg/L | Conc. in mg/L RR-Monatin in Lemon Lime matrix in dark-colored PET Bottle (75 mL) ([1]; visible light 74 hours): 28.9 mg/L | Monatin remaining after UV exposure (%) [2, 4]: 65.6% | Monatin remaining after UV exposure (ppm) [2, 4]: 28.4 ppm | Monatin remaining after UV exposure (%) [2, 5]: 77.6% | Monatin remaining after UV exposure (ppm) [2, 5]: 33.6 ppm | Monatin remaining after UV exposure (%) [2, 6]: 51.0% | Monatin remaining after UV exposure (ppm) [2, 6]: 22.1 ppm | Monatin remaining after UV exposure (%) [2, 7]: 33.3% | Monatin remaining after UV exposure (ppm) [2, 7]: 14.4 ppm | Monatin remaining after UV exposure (%) ([2]; Regular PET, additives none): 13.4% | Monatin remaining after UV exposure (ppm) ([2]; Regular PET, additives none): 5.8 ppm | Visual analysis ([3]; PET with UV barrier, UV light 24 hours): − | Visual analysis ([3]; PET with UV barrier, visible light three days): + | Visual analysis ([3]; Regular PET, UV light 24 hours): − | Visual analysis ([3]; Regular PET, visible light three days): +
